Tests used:
Paracentrotus lividus [1] = assay: Induction of microtubule destabilization in sea urchin embryo assessed as embryo spinning measured after 0.5 to 20 hrs; assay type: tissue-based; details: time hrs 0.5-20
Paracentrotus lividus [2] = assay: Antimitotic activity against sea urchin embryo assessed as cleavage alteration measured 3 to 6 hrs post-fertilization by light microscopy analysis; assay type: functional; details: time hrs 3-6
Paracentrotus lividus [3] = assay: Antimitotic activity against sea urchin embryo assessed as cleavage arrest measured 3 to 6 hrs post-fertilization by light microscopy analysis; assay type: functional; details: time hrs 3-6
MCF7 = assay: Cytotoxicity against human MCF7 cells assessed as cell growth inhibition measured after 24 to 48 hrs by SRB assay; assay type: functional, cell-based
[4] = Cytotoxicity against human KKU-100 cells assessed as cell growth inhibition after 48 hrs; assay type: functional, cell-based; details: KKU100, 48 h
Paracentrotus lividus [5] = assay: Antimitotic activity against sea urchin embryo assessed as cleavage alteration measured 2.5 to 6 hrs post-fertilization by light microscopy analysis; assay type: functional; details: time hrs 2.5-6
Paracentrotus lividus [6] = assay: Antimitotic activity against sea urchin embryo assessed as cleavage arrest measured 2.5 to 6 hrs post-fertilization by light microscopy analysis; assay type: functional; details: time hrs 2.5-6
A549 = assay: Cytotoxicity against human A549 cells assessed as cell growth inhibition; assay type: functional, cell-based
HCT-116 = assay: Cytotoxicity against human HCT-116 cells assessed as cell growth inhibition; assay type: functional, cell-based
A-375 = assay: Cytotoxicity against human A-375 cells assessed as cell growth inhibition; assay type: functional, cell-based
SK-OV-3 = assay: Cytotoxicity against human SK-OV-3 cells assessed as cell growth inhibition; assay type: functional, cell-based
PC-3 = assay: Cytotoxicity against human PC-3 cells assessed as cell growth inhibition; assay type: functional, cell-based
DU-145 = assay: Cytotoxicity against human DU-145 cells assessed as cell growth inhibition; assay type: functional, cell-based
T47D = assay: Cytotoxicity against human T47D cells assessed as cell growth inhibition; assay type: functional, cell-based
HFF = assay: Cytotoxicity against human HFF cells assessed as cell growth inhibition; assay type: cell-based
[7] = Selectivity ratio of IC50 for human HFF cells to IC50 for human A-375 cells assessed as cell growth inhibition
[8] = Aqueous solubility of the compound at physiological pH by H-NMR analysis; assay type: physicochemical; details: aqueous solution
Paracentrotus lividus [9] = assay: Antimitotic activity against sea urchin embryo assessed as cleavage alteration measured 2.5 to 5.5 hrs post-fertilization using compound stored for 1 hr in 96% EtOH at room temperature by light microscopy analysis; assay type: functional; details: time hrs 2.5-5.5
Paracentrotus lividus [10] = assay: Antimitotic activity against sea urchin embryo assessed as cleavage arrest measured 2.5 to 5.5 hrs post-fertilization using compound stored for 1 hr in 96% EtOH at room temperature by light microscopy analysis; assay type: functional; details: time hrs 2.5-5.5
Paracentrotus lividus [11] = assay: Antimitotic activity against sea urchin embryo assessed as cleavage alteration measured 2.5 to 5.5 hrs post-fertilization using compound stored for 2 days in 96% EtOH at room temperature by light microscopy analysis; assay type: functional; details: time hrs 2.5-5.5
Paracentrotus lividus [12] = assay: Antimitotic activity against sea urchin embryo assessed as cleavage alteration measured 2.5 to 5.5 hrs post-fertilization using compound stored for 4 days in 96% EtOH at room temperature by light microscopy analysis; assay type: functional; details: time hrs 2.5-5.5
Paracentrotus lividus [13] = assay: Antimitotic activity against sea urchin embryo assessed as cleavage alteration measured 2.5 to 5.5 hrs post-fertilization using compound stored for 1 month in 96% EtOH at room temperature by light microscopy analysis; assay type: functional; details: time hrs 2.5-5.5
Paracentrotus lividus [14] = assay: Antimitotic activity against sea urchin embryo assessed as cleavage arrest measured 2.5 to 5.5 hrs post-fertilization using compound stored for 2 days in 96% EtOH at room temperature by light microscopy analysis; assay type: functional; details: time hrs 2.5-5.5
Paracentrotus lividus [15] = assay: Antimitotic activity against sea urchin embryo assessed as cleavage arrest measured 2.5 to 5.5 hrs post-fertilization using compound stored for 4 days in 96% EtOH at room temperature by light microscopy analysis; assay type: functional; details: time hrs 2.5-5.5
Paracentrotus lividus [16] = assay: Antimitotic activity against sea urchin embryo assessed as cleavage arrest measured 2.5 to 5.5 hrs post-fertilization using compound stored for 1 month in 96% EtOH at room temperature by light microscopy analysis; assay type: functional; details: time hrs 2.5-5.5

With `COc1ccc(NC(=O)C(=O)c2c[nH]c3cc(F)ccc23)cc1` the EC (Paracentrotus lividus [1]) was 1 µM, the EC (Paracentrotus lividus [2]) was 0.001 µM and the EC (Paracentrotus lividus [3]) was 0.005 µM.
Work on `NCCC(O)(P(=O)(O)O)P(=O)(O)O` [PAMIDRONIC ACID] yielded an IC50 (MCF7) of 22900 nM and an IC50 [4] of 147000 nM.
Work on `COc1ccc(NC(=O)C(=O)c2cn(CC(P(=O)(O)O)P(=O)(O)O)c3ccccc23)cc1` [listing 1 of 2 here] yielded an EC (Paracentrotus lividus [5]) of 0.001 µM, an EC (Paracentrotus lividus [6]) of 0.002 µM and an IC50 (A549) of 223 nM. The IC50 (HCT-116) was 222 nM, the IC50 (A-375) was 34 nM and the IC50 (SK-OV-3) was 3230 nM. For the same compound, the IC50 (PC-3) was 7540 nM, the IC50 (DU-145) was 478 nM and the IC50 (T47D) was 658 nM. For the same compound, the IC50 (HFF) was 2390 nM and the “Ratio IC50” value [7] was 70.
In the case of `COc1ccc(NC(=O)C(=O)c2cn(CC(P(=O)(O)O)P(=O)(O)O)c3ccccc23)cc1` [listing 2 of 2 here], the EC (Paracentrotus lividus [1]) is reported as 0.005 µM.
`O=C(Nc1ccc2c(c1)OCCO2)C(=O)c1c[nH]c2cc(F)ccc12` showed an EC (Paracentrotus lividus [1]) of 0.5 µM, an EC (Paracentrotus lividus [2]) of 0.005 µM and an EC (Paracentrotus lividus [3]) of 0.02 µM.
Compound `COc1ccc(NC(=O)C(=O)c2cn(CC(P(=O)([O-])[O-])P(=O)([O-])[O-])c3ccccc23)cc1.[Na+].[Na+].[Na+].[Na+]` has a solubility [8] of 10000 µg/mL.
Compound `Nc1ncnc2c1ccn2[C@@H]1O[C@H](CO)[C@@H](O)[C@H]1O` [TUBERCIDIN] has an IC50 (A549) of 44 nM, an IC50 (HCT-116) of 82 nM and an IC50 (A-375) of 43 nM. The IC50 (SK-OV-3) was 131 nM, the IC50 (PC-3) was 76 nM and the IC50 (DU-145) was 256 nM. The IC50 (T47D) was 13 nM and the IC50 (HFF) was 790 nM.
In the case of `CCOP(=O)(OCC)C(Cn1cc(C(=O)C(=O)Nc2ccc3c(c2)OCCO3)c2ccccc21)P(=O)(OCC)OCC`, the EC (Paracentrotus lividus [9]) is reported as 0.5 µM, the EC (Paracentrotus lividus [1]) is reported as 0.1 µM and the EC (Paracentrotus lividus [10]) is reported as 0.2 µM.
For `NCCCC(O)(P(=O)(O)O)P(=O)(O)O` [ALENDRONIC ACID], the IC50 (MCF7) was 69500 nM.
For `CCOP(=O)(OCC)C(Cn1cc(C(=O)C(=O)Nc2ccc(OC)cc2)c2ccccc21)P(=O)(OCC)OCC`, the EC (Paracentrotus lividus [9]) was 0.5 µM, the EC (Paracentrotus lividus [1]) was 0.2 µM and the EC (Paracentrotus lividus [11]) was 0.02 µM. The EC (Paracentrotus lividus [12]) was 0.005 µM, the EC (Paracentrotus lividus [13]) was 0.002 µM and the EC (Paracentrotus lividus [10]) was 0.2 µM. For the same compound, the EC (Paracentrotus lividus [14]) was 0.1 µM, the EC (Paracentrotus lividus [15]) was 0.02 µM and the EC (Paracentrotus lividus [16]) was 0.005 µM.
